In patent US20210221866A1, “PROTEASE-RESISTANT LIPIDATED GLP-1 ANALOGS” (MEDIMMUNE LIMITED, priority 2015, published 2021):
Read-outs that look alike come from different tables or passages of the source. One block for each compound: values may come before it. Numbered stars: 1 amine (or outer) side, 2 acyl side, 3 side chain; on linkers, the order of the positions; unused ones are H or OH. Square brackets hold non-standard residues; d marks the D form. Side chains are listed from the residue outwards. Peptide text beside a SMILES is read from it. * marks the point of attachment. C18 diacid = O=C(O)CCCCCCCCCCCCCCCCC(=O)*; γGlu = O=C(O)[C@H](CCC(=O)[*:2])N[*:1]; αMeF = C[C@](N)(Cc1ccccc1)C(=O)O; αMeK = C[C@](N)(CCCCN)C(=O)O; Lauroyl = CCCCCCCCCCCC(=O)*; αMeS = C[C@](N)(CO)C(=O)O; AEEA = NCCOCCOCC(=O)O; Aib = CC(C)(N)C(=O)O

Target: T1, human GLP-1 receptor (GLP-1R) (Homo sapiens, UniProt P43220)
T1 construct: expressed in transfected cells; host or cells: HEK293 cells or CHO cells
Assay: cAMP assay, human GLP-1R cells
Assay type: cell-based
Experimental: Sample dilutions are made in duplicate.
A frozen cryo-vial of cells expressing the receptor of interest is thawed rapidly in a water-bath, transferred to pre-warmed assay buffer and spun at 240×g for 5 minutes. Cells are re-suspended in assay buffer at a batch-dependent optimized concentration (e.g. hGCGR cells at 2×10^5 cells/ml, hGLP-1R and hGIPR cells at 1×10^5 cells/ml).
To this, 5 μL cell suspension is added and the plates incubated at room temperature for 30 minutes.
cAMP levels are measured using a commercially available cAMP dynamic 2 HTRF kit (Cisbio, Cat #62AM4PEJ), following the two step protocol as per manufacturer's recommendations. In brief; anti-cAMP cryptate (donor fluorophore) and cAMP-d2 (acceptor fluorophore) are made up separately by diluting each 1/20 in conjugate & lysis buffer provided in the kit. 5 μL anti-cAMP cryptate is added to wells of the assay plate, and 5 μL cAMP-d2 is added to wells except non-specific binding (NSB) wells, to which conjugate and lysis buffer are added. […] EC50 values of the synthetic peptides determined in cAMP assays are then determined.
Data is transformed to % Delta F as described in the manufacturer's guidelines and analyzed by 4-parameter logistic fit to determine EC50 values. […] To compare the balance of activities at the GLP-1R and GCGR between different peptides and across different conditions, these can be correlated, where the EC50's are related to those of comparator peptides.

[1] = cAMP activity, mean of n1 and n2, read-out: Mean pM GLP-1R
[2] = Table 11, tris-lipidated peptides, mean of n1 and n2, read-out: Primary assay EC50 Mean pM GLP-1R

T1 sequence (P43220 24-463): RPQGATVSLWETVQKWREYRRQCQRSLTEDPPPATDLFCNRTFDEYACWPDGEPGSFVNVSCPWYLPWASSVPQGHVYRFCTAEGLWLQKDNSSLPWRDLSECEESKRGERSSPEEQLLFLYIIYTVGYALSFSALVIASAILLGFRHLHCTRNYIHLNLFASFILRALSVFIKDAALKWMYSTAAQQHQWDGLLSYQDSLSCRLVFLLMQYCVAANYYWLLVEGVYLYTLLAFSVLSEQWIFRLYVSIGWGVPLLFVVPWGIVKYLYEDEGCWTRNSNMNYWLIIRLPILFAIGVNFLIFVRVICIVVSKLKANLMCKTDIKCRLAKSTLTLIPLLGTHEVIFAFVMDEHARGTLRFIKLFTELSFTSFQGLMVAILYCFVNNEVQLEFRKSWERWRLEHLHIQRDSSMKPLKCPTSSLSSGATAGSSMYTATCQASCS

Compound: CC[C@H](C)[C@H](NC(=O)[C@](C)(Cc1ccccc1)NC(=O)[C@H](CCC(=O)O)NC(=O)[C@H](CCCCNC(=O)CC[C@H](NC(=O)CC[C@H](NC(=O)CCCCCCCCCCCCCCCCC(=O)O)C(=O)O)C(=O)O)NC(=O)[C@H](C)NC(=O)[C@H](C)NC(=O)[C@H](CCC(=O)O)NC(=O)CNC(=O)[C@H](CCC(=O)O)NC(=O)[C@H](CC(C)C)NC(=O)[C@](C)(Cc1ccccc1)NC(=O)[C@H](CO)NC(=O)[C@](C)(CO)NC(=O)[C@@H](NC(=O)[C@H](CC(=O)O)NC(=O)[C@H](CO)NC(=O)[C@@H](NC(=O)[C@](C)(Cc1ccccc1)NC(=O)[C@H](CO)NC(=O)CNC(=O)[C@H](CCC(=O)O)NC(=O)C(C)(C)NC(=O)[C@@H](N)Cc1c[nH]cn1)[C@@H](C)O)C(C)C)C(=O)N[C@@H](C)C(=O)N[C@@](C)(Cc1ccccc1)C(=O)N[C@H](C(=O)N[C@H](C(=O)N[C@@](C)(CCCCN)C(=O)NCC(=O)NCC(N)=O)C(C)C)C(C)C [compound 156]
EC50 [1]: 105 pM

Compound: CCCCCCCCCCCC(=O)N[C@@H](CCC(=O)NCCOCCOCC(=O)NCCOCCOCC(=O)NCCCC[C@H](NC(=O)CNC(=O)[C@H](CCC(=O)O)NC(=O)[C@H](CC(C)C)NC(=O)[C@H](CCCCNC(=O)COCCOCCNC(=O)COCCOCCNC(=O)CC[C@H](NC(=O)CCCCCCCCCCC)C(=O)O)NC(=O)[C@H](CO)NC(=O)[C@](C)(CO)NC(=O)[C@@H](NC(=O)[C@H](CC(=O)O)NC(=O)[C@H](CO)NC(=O)[C@@H](NC(=O)[C@](C)(Cc1ccccc1)NC(=O)[C@H](CO)NC(=O)CNC(=O)[C@H](CCC(=O)O)NC(=O)C(C)(C)NC(=O)[C@@H](N)Cc1c[nH]cn1)[C@@H](C)O)C(C)C)C(=O)N[C@@H](C)C(=O)N[C@@H](C)C(=O)N[C@@](C)(CCCCN)C(=O)N[C@@H](CCC(=O)O)C(=O)N[C@@H](Cc1ccccc1)C(=O)N[C@H](C(=O)N[C@@H](C)C(=O)N[C@@H](Cc1ccccc1)C(=O)N[C@@H](CCCCNC(=O)COCCOCCNC(=O)COCCOCCNC(=O)CC[C@H](NC(=O)CCCCCCCCCCC)C(=O)O)C(=O)N[C@H](C(=O)N[C@@H](CCC(=O)O)C(=O)NCC(=O)NCC(N)=O)C(C)C)[C@@H](C)CC)C(=O)O [compound 480] (H-H[Aib]EGS[αMeF]TSDV[αMeS]SK([AEEA-AEEA-γGlu-Lauroyl])LEGK([AEEA-AEEA-γGlu-Lauroyl])AA[αMeK]EFIAFK([AEEA-AEEA-γGlu-Lauroyl])VEGG-NH2; N-terminus assumed)
EC50 [2]: 57.5 pM

Compound: CCCCCCCCCCCC(=O)N[C@@H](CCC(=O)NCCOCCOCC(=O)NCCOCCOCC(=O)NCCCC[C@H](NC(=O)[C@H](C)NC(=O)[C@@H](NC(=O)[C@H](Cc1ccccc1)NC(=O)[C@H](CCC(=O)O)NC(=O)[C@](C)(CCCCN)NC(=O)[C@H](C)NC(=O)[C@H](CCCCNC(=O)COCCOCCNC(=O)COCCOCCNC(=O)CC[C@H](NC(=O)CCCCCCCCCCC)C(=O)O)NC(=O)[C@H](CCC(=O)O)NC(=O)CNC(=O)[C@H](CCC(=O)O)NC(=O)[C@H](CC(C)C)NC(=O)[C@H](Cc1ccc(O)cc1)NC(=O)[C@H](CO)NC(=O)[C@H](CO)NC(=O)[C@H](CCCCNC(=O)COCCOCCNC(=O)COCCOCCNC(=O)CC[C@H](NC(=O)CCCCCCCCCCC)C(=O)O)NC(=O)[C@H](CC(=O)O)NC(=O)[C@H](CO)NC(=O)[C@@H](NC(=O)[C@](C)(Cc1ccccc1)NC(=O)[C@H](CO)NC(=O)CNC(=O)[C@H](CCC(=O)O)NC(=O)C(C)(C)NC(=O)[C@@H](N)Cc1c[nH]cn1)[C@@H](C)O)[C@@H](C)CC)C(=O)N[C@H](C(=O)N[C@H](C(=O)N[C@@H](CCC(=O)O)C(=O)NCC(=O)NCC(N)=O)C(C)C)C(C)C)C(=O)O [compound 457] (H-H[Aib]EGS[αMeF]TSDK([AEEA-AEEA-γGlu-Lauroyl])SSYLEGEK([AEEA-AEEA-γGlu-Lauroyl])A[αMeK]EFIAK([AEEA-AEEA-γGlu-Lauroyl])VVEGG-NH2; N-terminus assumed)
EC50 [2]: 142 pM | EC50 (Table 11, tris-lipidated peptides, replicate n1, read-out: Primary assay EC50 GLP-1R n1): 127 pM | EC50 (Table 11, tris-lipidated peptides, replicate n2, read-out: Primary assay EC50 GLP-1R n2): 156 pM

Compound: CC[C@H](C)[C@H](NC(=O)[C@](C)(Cc1ccccc1)NC(=O)[C@H](CCC(=O)O)NC(=O)[C@](C)(CCCCN)NC(=O)[C@H](C)NC(=O)[C@H](C)NC(=O)[C@H](CCC(=O)O)NC(=O)CNC(=O)[C@H](CCC(=O)O)NC(=O)[C@H](CC(C)C)NC(=O)[C@](C)(Cc1ccccc1)NC(=O)[C@H](CO)NC(=O)[C@](C)(CO)NC(=O)[C@@H](NC(=O)[C@H](CC(=O)O)NC(=O)[C@H](CO)NC(=O)[C@@H](NC(=O)[C@](C)(Cc1ccccc1)NC(=O)[C@H](CO)NC(=O)CNC(=O)[C@H](CCC(=O)O)NC(=O)C(C)(C)NC(=O)[C@@H](N)Cc1c[nH]cn1)[C@@H](C)O)C(C)C)C(=O)N[C@@H](C)C(=O)N[C@@H](CCCCNC(=O)COCCOCCNC(=O)COCCOCCNC(=O)CC[C@H](NC(=O)CCCCCCCCCCCCCCCCC(=O)O)C(=O)O)C(=O)N[C@H](C(=O)N[C@H](C(=O)N[C@@](C)(CCCCN)C(=O)NCC(=O)NCC(N)=O)C(C)C)C(C)C [compound 104]
EC50 [1]: 5 pM

Continued, values first:

EC50 [1]: 6 pM
Compound: CC[C@H](C)[C@H](NC(=O)[C@](C)(Cc1ccccc1)NC(=O)[C@H](CCC(=O)O)NC(=O)[C@](C)(CCCCN)NC(=O)[C@H](C)NC(=O)[C@H](C)NC(=O)[C@H](CCCCNC(=O)COCCOCCNC(=O)COCCOCCNC(=O)CC[C@H](NC(=O)CCCCCCCCCCCCCCCCC(=O)O)C(=O)O)NC(=O)CNC(=O)[C@H](CCC(=O)O)NC(=O)[C@H](CC(C)C)NC(=O)[C@](C)(Cc1ccccc1)NC(=O)[C@H](CO)NC(=O)[C@](C)(CO)NC(=O)[C@@H](NC(=O)[C@H](CC(=O)O)NC(=O)[C@H](CO)NC(=O)[C@@H](NC(=O)[C@](C)(Cc1ccccc1)NC(=O)[C@H](CO)NC(=O)CNC(=O)[C@H](CCC(=O)O)NC(=O)C(C)(C)NC(=O)[C@@H](N)Cc1c[nH]cn1)[C@@H](C)O)C(C)C)C(=O)N[C@@H](C)C(=O)N[C@@](C)(Cc1ccccc1)C(=O)N[C@H](C(=O)N[C@H](C(=O)N[C@@](C)(CCCCN)C(=O)NCC(=O)NCC(N)=O)C(C)C)C(C)C [compound 112] (H-H[Aib]EGS[αMeF]TSDV[αMeS]S[αMeF]LEGK([AEEA-AEEA-γGlu-C18 diacid])AA[αMeK]E[αMeF]IA[αMeF]VV[αMeK]GG-NH2; N-terminus assumed)

EC50 [1]: 1200 pM
Compound: CC[C@H](C)[C@H](NC(=O)[C@](C)(Cc1ccccc1)NC(=O)[C@H](CCC(=O)O)NC(=O)[C@](C)(CCCCN)NC(=O)[C@H](C)NC(=O)[C@H](C)NC(=O)[C@H](CCC(=O)O)NC(=O)CNC(=O)[C@H](CCC(=O)O)NC(=O)[C@H](CC(C)C)NC(=O)[C@](C)(Cc1ccccc1)NC(=O)[C@H](CO)NC(=O)[C@H](CO)NC(=O)[C@@H](NC(=O)[C@H](CCC(=O)O)NC(=O)[C@H](CO)NC(=O)[C@H](CO)NC(=O)[C@](C)(Cc1ccccc1)NC(=O)[C@H](CO)NC(=O)CNC(=O)[C@H](CCC(=O)O)NC(=O)C(C)(C)NC(=O)[C@@H](N)Cc1c[nH]cn1)C(C)C)C(=O)N[C@@H](C)C(=O)N[C@@](C)(Cc1ccccc1)C(=O)N[C@H](C(=O)N[C@H](C(=O)N[C@@](C)(CCCCN)C(=O)NCC(=O)NCC(N)=O)C(C)C)C(C)C [compound 9] (H-H[Aib]EGS[αMeF]SSEVSS[αMeF]LEGEAA[αMeK]E[αMeF]IA[αMeF]VV[αMeK]GG-NH2; N-terminus assumed)

EC50 [1]: 34 pM | EC50 (cAMP activity, second determination (n2), read-out: Primary assay EC50 GLP-1R n2): 34.6 pM
Compound: CC[C@H](C)[C@H](NC(=O)[C@](C)(Cc1ccccc1)NC(=O)[C@H](CCC(=O)O)NC(=O)[C@H](CCCCNC(=O)COCCOCCNC(=O)COCCOCCNC(=O)CC[C@H](NC(=O)CCCCCCCCCCCCCCC(=O)O)C(=O)O)NC(=O)[C@H](C)NC(=O)[C@H](C)NC(=O)[C@H](CCC(=O)O)NC(=O)CNC(=O)[C@H](CCC(=O)O)NC(=O)[C@H](CC(C)C)NC(=O)[C@](C)(Cc1ccccc1)NC(=O)[C@H](CO)NC(=O)[C@](C)(CO)NC(=O)[C@@H](NC(=O)[C@H](CC(=O)O)NC(=O)[C@H](CO)NC(=O)[C@@H](NC(=O)[C@](C)(Cc1ccccc1)NC(=O)[C@H](CO)NC(=O)CNC(=O)[C@H](CCC(=O)O)NC(=O)C(C)(C)NC(=O)[C@@H](N)Cc1c[nH]cn1)[C@@H](C)O)C(C)C)C(=O)N[C@@H](C)C(=O)N[C@@](C)(Cc1ccccc1)C(=O)N[C@H](C(=O)N[C@H](C(=O)N[C@@](C)(CCCCN)C(=O)NCC(=O)NCC(N)=O)C(C)C)C(C)C [compound 109]

EC50 [1]: 118 pM
Compound: CC[C@H](C)[C@H](NC(=O)[C@H](Cc1ccccc1)NC(=O)[C@H](CCC(=O)O)NC(=O)[C@H](CCCCN)NC(=O)[C@H](C)NC(=O)[C@H](C)NC(=O)[C@H](CCC(N)=O)NC(=O)CNC(=O)[C@H](CCC(=O)O)NC(=O)[C@H](CC(C)C)NC(=O)[C@H](Cc1ccc(O)cc1)NC(=O)[C@H](CO)NC(=O)C(C)(C)NC(=O)[C@@H](NC(=O)[C@H](CC(=O)O)NC(=O)[C@H](CO)NC(=O)[C@@H](NC(=O)[C@H](Cc1ccccc1)NC(=O)[C@@H](NC(=O)CNC(=O)[C@H](CCC(=O)O)NC(=O)C(C)(C)NC(=O)[C@@H](N)Cc1c[nH]cn1)[C@@H](C)O)[C@@H](C)O)C(C)C)C(=O)N[C@@H](C)C(=O)N[C@@H](Cc1c[nH]c2ccccc12)C(=O)N[C@@H](CC(C)C)C(=O)N[C@H](C(=O)N[C@@H](CCCCN)C(=O)NCC(=O)N[C@@H](CCCNC(=N)N)C(N)=O)C(C)C [compound 22] (H-H[Aib]EGTFTSDV[Aib]SYLEGQAAKEFIAWLVKGR-NH2; N-terminus assumed)
